Measurements from ChEMBL document CHEMBL5465560, “Selectivity Literature for EUbOPEN Chemogenomic Library” (2024).

What was measured:
[1] = molecular target: Casein kinase I isoform gamma-1 (Homo sapiens) (UniProt Q9HCP0); test: Selectivity interaction (KinomeScan (DiscoverX)) EUB0000229b CSNK1G1; settings: at 10 µM
[2] = tested on: Phosphatidylinositol 4,5-bisphosphate 3-kinase catalytic subunit alpha isoform (Homo sapiens), P42336 [H1047Y]; settings: at 10 µM
[3] = molecular target: T1, Serine/threonine-protein kinase Nek3 (Homo sapiens) (UniProt P51956); test: Selectivity interaction (KinomeScan (DiscoverX)) EUB0000695a NEK3; settings: at 100 nM
T1 sequence (whole entry): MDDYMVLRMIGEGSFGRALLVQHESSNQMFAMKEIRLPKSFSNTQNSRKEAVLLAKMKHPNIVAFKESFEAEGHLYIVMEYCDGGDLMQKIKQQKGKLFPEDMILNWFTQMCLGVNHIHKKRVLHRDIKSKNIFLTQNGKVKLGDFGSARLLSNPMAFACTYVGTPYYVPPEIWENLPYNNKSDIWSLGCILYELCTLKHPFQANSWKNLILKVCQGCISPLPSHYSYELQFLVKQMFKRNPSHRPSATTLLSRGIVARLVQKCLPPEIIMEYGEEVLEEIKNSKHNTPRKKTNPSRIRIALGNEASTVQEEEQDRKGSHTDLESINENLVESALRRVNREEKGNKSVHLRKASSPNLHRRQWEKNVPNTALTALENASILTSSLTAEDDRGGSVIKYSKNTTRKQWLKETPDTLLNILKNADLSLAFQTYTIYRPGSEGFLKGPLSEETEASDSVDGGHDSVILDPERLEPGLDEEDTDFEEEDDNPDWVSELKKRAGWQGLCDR

[4] = molecular target: T2, Serine/threonine-protein kinase Nek10 (Homo sapiens) (UniProt Q6ZWH5); test: Selectivity interaction (KinomeScan (DiscoverX)) EUB0001079a NEK10; settings: at 1 µM
T2 sequence (whole entry): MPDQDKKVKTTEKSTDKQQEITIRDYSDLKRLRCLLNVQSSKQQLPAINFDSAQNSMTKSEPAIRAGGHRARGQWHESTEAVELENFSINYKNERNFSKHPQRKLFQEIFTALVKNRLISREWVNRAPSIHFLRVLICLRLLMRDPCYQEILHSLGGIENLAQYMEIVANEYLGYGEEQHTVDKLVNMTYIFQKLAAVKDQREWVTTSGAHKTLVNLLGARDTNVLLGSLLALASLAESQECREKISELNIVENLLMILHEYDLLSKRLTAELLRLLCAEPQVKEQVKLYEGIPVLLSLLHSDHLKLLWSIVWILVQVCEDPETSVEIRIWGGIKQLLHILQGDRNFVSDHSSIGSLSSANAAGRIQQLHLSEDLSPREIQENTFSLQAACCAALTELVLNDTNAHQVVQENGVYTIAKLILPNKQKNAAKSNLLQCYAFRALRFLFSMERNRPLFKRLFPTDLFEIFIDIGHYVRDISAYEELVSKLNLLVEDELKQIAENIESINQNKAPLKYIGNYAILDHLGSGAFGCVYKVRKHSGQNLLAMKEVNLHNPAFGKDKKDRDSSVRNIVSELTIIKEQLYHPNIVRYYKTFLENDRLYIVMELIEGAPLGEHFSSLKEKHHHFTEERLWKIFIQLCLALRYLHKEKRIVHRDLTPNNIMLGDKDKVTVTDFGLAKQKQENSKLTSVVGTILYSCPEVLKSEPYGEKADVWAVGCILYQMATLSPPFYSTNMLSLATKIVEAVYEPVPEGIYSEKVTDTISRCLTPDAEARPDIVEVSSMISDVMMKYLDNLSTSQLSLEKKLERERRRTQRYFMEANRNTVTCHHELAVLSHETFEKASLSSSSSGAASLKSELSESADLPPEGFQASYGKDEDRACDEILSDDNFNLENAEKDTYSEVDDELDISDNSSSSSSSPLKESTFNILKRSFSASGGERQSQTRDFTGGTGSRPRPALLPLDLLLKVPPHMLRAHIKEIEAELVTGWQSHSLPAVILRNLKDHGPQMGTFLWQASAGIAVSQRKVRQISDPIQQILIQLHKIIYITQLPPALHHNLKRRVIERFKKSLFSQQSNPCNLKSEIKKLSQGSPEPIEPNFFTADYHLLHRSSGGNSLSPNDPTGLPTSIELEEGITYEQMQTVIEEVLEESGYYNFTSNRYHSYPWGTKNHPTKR

[5] = molecular target: T3, Bone morphogenetic protein receptor type-2 (Homo sapiens) (UniProt Q13873); test: Selectivity interaction (KinomeScan (DiscoverX)) EUB0000666a BMPR2; settings: at 10 µM
T3 sequence (whole entry): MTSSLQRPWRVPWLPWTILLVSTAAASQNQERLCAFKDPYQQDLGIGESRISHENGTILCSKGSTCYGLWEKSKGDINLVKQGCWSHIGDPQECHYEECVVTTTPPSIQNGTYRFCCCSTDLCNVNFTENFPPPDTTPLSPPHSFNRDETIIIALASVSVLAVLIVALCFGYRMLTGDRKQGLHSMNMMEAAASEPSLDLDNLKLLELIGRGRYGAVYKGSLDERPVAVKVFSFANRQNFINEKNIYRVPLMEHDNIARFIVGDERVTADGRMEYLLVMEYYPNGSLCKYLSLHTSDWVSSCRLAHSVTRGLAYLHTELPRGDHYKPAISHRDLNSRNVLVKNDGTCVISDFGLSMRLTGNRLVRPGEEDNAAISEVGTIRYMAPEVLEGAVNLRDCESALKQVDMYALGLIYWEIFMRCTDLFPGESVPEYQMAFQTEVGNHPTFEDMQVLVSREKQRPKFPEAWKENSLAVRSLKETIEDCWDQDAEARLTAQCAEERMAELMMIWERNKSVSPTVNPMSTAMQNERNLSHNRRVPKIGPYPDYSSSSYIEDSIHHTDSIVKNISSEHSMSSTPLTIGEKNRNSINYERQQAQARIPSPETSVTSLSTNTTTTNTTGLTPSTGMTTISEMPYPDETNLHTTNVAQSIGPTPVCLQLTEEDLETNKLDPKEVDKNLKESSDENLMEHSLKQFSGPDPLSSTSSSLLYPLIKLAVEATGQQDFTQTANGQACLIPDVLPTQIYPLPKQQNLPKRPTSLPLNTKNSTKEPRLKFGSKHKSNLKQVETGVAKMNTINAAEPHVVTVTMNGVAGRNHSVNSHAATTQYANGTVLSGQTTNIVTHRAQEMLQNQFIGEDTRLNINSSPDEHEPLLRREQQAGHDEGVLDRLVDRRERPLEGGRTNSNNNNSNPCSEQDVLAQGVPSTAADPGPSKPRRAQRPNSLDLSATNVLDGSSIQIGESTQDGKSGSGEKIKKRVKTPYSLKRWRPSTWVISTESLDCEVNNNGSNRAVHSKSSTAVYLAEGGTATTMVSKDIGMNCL

[6] = molecular target: Receptor tyrosine-protein kinase erbB-4 (Homo sapiens, UniProt Q15303); settings: at 10 µM
Sequence of Receptor tyrosine-protein kinase erbB-4 (Q15303 whole entry): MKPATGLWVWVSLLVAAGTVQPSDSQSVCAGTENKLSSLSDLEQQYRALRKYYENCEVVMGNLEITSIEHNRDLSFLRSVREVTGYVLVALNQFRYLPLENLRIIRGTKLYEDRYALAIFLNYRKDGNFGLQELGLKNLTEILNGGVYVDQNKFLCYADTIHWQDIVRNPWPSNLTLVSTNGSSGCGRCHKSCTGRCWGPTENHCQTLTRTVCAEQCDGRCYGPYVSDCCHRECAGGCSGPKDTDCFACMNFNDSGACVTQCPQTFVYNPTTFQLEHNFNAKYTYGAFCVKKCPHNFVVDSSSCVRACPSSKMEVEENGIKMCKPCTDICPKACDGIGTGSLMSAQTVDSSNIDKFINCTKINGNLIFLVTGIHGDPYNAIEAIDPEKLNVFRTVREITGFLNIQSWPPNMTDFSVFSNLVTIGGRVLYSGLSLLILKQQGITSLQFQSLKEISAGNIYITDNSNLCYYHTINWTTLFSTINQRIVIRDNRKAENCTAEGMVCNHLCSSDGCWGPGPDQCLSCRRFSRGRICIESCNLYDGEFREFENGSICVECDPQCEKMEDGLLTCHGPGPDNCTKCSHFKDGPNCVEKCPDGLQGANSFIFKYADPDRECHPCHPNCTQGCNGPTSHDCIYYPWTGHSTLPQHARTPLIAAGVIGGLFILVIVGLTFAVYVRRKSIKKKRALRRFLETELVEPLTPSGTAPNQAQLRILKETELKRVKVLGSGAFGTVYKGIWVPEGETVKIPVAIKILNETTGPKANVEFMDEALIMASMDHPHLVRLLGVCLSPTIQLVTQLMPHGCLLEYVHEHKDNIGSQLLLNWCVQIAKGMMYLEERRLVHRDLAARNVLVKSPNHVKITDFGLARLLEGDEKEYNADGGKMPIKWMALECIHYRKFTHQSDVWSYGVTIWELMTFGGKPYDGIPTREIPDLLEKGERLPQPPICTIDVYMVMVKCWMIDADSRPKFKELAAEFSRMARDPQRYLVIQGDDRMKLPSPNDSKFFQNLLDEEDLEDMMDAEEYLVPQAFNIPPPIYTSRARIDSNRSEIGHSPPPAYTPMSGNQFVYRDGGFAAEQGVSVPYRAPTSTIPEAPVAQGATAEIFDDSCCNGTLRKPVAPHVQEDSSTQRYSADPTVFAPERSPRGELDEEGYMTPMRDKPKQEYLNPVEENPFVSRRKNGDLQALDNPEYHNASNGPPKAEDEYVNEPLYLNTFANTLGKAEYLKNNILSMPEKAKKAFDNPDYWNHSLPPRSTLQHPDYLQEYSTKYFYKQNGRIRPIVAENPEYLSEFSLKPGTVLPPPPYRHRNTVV

Sequence of Casein kinase I isoform gamma-1 (Homo sapiens) (Q9HCP0 whole entry, looked up, canonical isoform): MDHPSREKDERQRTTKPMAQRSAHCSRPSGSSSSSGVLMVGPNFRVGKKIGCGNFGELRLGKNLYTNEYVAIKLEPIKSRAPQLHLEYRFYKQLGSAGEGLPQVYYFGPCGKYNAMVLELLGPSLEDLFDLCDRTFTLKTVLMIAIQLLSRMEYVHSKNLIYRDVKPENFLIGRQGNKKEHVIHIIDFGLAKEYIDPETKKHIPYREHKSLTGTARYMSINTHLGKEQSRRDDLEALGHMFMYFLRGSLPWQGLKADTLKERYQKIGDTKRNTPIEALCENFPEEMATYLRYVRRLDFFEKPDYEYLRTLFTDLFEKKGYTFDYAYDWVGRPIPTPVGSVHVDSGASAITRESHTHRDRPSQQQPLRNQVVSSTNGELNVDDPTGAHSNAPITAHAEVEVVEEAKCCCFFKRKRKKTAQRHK
Sequence of Phosphatidylinositol 4,5-bisphosphate 3-kinase catalytic subunit alpha isoform (Homo sapiens), P42336 [H1047Y] (P42336 whole entry H1047Y, canonical isoform): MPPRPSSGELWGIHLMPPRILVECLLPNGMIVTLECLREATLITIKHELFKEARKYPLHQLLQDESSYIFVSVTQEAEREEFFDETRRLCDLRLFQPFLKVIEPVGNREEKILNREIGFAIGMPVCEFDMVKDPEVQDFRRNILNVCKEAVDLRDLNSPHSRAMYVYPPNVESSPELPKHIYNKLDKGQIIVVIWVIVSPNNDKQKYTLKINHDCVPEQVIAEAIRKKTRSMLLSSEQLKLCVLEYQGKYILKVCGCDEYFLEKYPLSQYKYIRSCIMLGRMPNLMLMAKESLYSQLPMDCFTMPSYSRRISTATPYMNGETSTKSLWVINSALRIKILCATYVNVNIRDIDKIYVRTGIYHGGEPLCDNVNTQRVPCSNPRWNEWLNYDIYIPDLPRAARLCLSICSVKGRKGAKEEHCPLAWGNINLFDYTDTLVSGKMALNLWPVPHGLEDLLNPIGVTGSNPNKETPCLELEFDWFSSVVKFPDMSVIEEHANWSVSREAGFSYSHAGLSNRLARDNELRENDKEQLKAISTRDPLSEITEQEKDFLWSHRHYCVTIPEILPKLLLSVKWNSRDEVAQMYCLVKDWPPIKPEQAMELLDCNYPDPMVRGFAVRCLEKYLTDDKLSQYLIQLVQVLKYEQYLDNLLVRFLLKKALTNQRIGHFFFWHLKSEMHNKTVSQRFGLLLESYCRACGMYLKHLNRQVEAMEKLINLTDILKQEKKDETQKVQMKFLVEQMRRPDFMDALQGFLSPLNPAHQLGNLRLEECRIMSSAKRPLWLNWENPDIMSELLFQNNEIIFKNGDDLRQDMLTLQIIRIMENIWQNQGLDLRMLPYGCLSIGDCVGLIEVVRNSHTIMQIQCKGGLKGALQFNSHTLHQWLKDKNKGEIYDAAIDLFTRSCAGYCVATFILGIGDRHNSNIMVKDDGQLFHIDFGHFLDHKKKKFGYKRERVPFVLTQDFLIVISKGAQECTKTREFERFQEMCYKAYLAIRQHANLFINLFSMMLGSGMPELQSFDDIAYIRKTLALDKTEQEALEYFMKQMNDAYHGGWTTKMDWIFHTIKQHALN

Compound `COc1cc(N(C)c2ccnc3ccc(C(F)(F)F)cc23)cc(OC)c1OC` has a % binding [1] of 76%.
Work on `COCC(=O)NC/C=C/c1ccc2ncnc(Nc3ccc(Oc4ccc(C)nc4)c(C)c3)c2c1` [CP-724714] yielded a % of control [2] of 47%.
In the case of `Cc1cc(F)c(C(=O)Nc2cccc(-c3nncn3C(C)C)n2)cc1-n1cnc(C2CC2)c1`, the % of control [3] is reported as 84%.
`Nc1cnc(N2CCc3cc(S(=O)(=O)Nc4c(F)cc(Cl)cc4F)cc(N4CCCC4=O)c32)nc1` [TP-020n] was tested, and the % of control [4] was 100%.
For `O=C(NOC[C@H](O)CO)c1ccc(F)c(F)c1Nc1ccc(I)cc1F`, the % of control [5] was 81%.
Compound `Cc1cc([C@@H](C)Nc2ccccc2C(=O)O)c2nc(N3CCOCC3)cc(=O)n2c1` [AZD-6482] has a % of control [6] of 100%.
